US9593149B2, “Amylin and calcitonin receptor agonist” (Novo Nordisk A/S, priority 2014, dated 2017)
Values after ≈ are worked out from the molar mass of the structure shown. Numbered stars: 1 amine (or outer) side, 2 acyl side, 3 side chain; on linkers, the order of the positions; unused ones are H or OH. Peptide text beside a SMILES is read from it. * marks the point of attachment. C20 diacid = O=C(O)CCCCCCCCCCCCCCCCCCC(=O)*; γGlu = O=C(O)[C@H](CCC(=O)[*:2])N[*:1]

Experiment: Assay (IV) determination of solubility
Assay type: physicochemical
Procedure: Assay (IV)—Determination of Solubility
The mimylin peptide was dissolved in water at ˜500 nmol/ml and mixed 1:1 with a series of buffers (100 mM glycylglycine pH 3.0, 100 mM glycylglycine pH 4.0, 100 mM glycylglycine pH 5.0, 100 mM bistrispropane pH 6.0, 100 mM bistrispropane pH 6.5, 100 mM bistrispropane pH 7.0, 100 mM bistrispropane pH 7.5, 100 mM bistrispropane pH 8.0).

| Solubility (pH 3.0) | Solubility (pH 4.0) | Solubility (pH 5.0) | Solubility (pH 6.0) | Solubility (pH 6.5) | Solubility (pH 7.0) | Solubility (pH 7.5) | Solubility (pH 8.0) | solubility at 18 h (pH 5.0) [µM] | SMILES |
| --- | --- | --- | --- | --- | --- | --- | --- | --- | --- |
| ≧200 μM | ≧200 μM | ≧200 μM | ≧200 μM | ≧200 μM | ≧200 μM | ≧200 μM | ≧200 μM | – | CC(C)C[C@H](NC(=O)[C@H](C)NC(=O)[C@H](C)NC(=O)[C@@H](NC(=O)[C@H](CO)NC(=O)[C@H](CC(C)C)NC(=O)[C@H](CCC(=O)O)NC(=O)[C@H](CO)NC(=O)[C@H](C)NC(=O)[C@H](CCC(=O)O)NC(=O)CC[C@H](NC(=O)CCCCCCCCCCCCCCCCCCC(=O)O)C(=O)O)[C@@H](C)O)C(=O)NCC(=O)N[C@@H](CCCNC(=N)N)C(=O)N[C@@H](CC(C)C)C(=O)N[C@@H](CO)C(=O)N[C@@H](C)C(=O)N[C@@H](CCC(=O)O)C(=O)N[C@@H](CC(C)C)C(=O)N[C@@H](Cc1cnc[nH]1)C(=O)N[C@@H](CCC(=O)O)C(=O)N[C@@H](CC(C)C)C(=O)N[C@@H](C)C(=O)N[C@H](C(=O)N[C@@H](Cc1ccc(O)cc1)C(=O)N1CCC[C@H]1C(=O)N[C@@H](CCCNC(=N)N)C(=O)N[C@H](C(=O)N[C@@H](CCC(=O)O)C(=O)N[C@H](C(=O)NCC(=O)N[C@@H](CO)C(=O)NCC(=O)N[C@@H](CO)C(=O)N1CCC[C@H]1C(N)=O)[C@@H](C)O)[C@@H](C)O)[C@@H](C)O [compound 34, [N-terminal(C20 diacid-gGlu), 23Y, 30S, 31G]mimylin] ({C20 diacid-γGlu}-EASELSTAALGRLSAELHELATYPRTETGSGSP-NH2) |
| ≧200 μM | ≧200 μM | ≧200 μM | ≧200 μM | ≧200 μM | ≧200 μM | ≧200 μM | ≧200 μM | – | CC(C)C[C@H](NC(=O)CNC(=O)[C@H](CO)NC(=O)[C@H](C)NC(=O)CC[C@H](NC(=O)CCCCCCCCCCCCCCCCCCC(=O)O)C(=O)O)C(=O)N[C@@H](CO)C(=O)N[C@H](C(=O)N[C@@H](C)C(=O)N[C@@H](C)C(=O)N[C@@H](CC(C)C)C(=O)NCC(=O)N[C@@H](CCCNC(=N)N)C(=O)N[C@@H](CC(C)C)C(=O)N[C@@H](CO)C(=O)N[C@@H](C)C(=O)N[C@@H](CCC(=O)O)C(=O)N[C@@H](CC(C)C)C(=O)N[C@@H](Cc1cnc[nH]1)C(=O)N[C@@H](CCC(=O)O)C(=O)N[C@@H](CC(C)C)C(=O)N[C@@H](C)C(=O)N[C@H](C(=O)N[C@@H](Cc1ccc(O)cc1)C(=O)N1CCC[C@H]1C(=O)N[C@@H](CCCNC(=N)N)C(=O)N[C@H](C(=O)N[C@@H](CCC(=O)O)C(=O)N[C@H](C(=O)NCC(=O)N[C@@H](CO)C(=O)NCC(=O)N[C@@H](CO)C(=O)N1CCC[C@H]1C(N)=O)[C@@H](C)O)[C@@H](C)O)[C@@H](C)O)[C@@H](C)O [compound 79, [N-terminal(C20 diacid-gGlu), des1, 4G, 23Y, 30S, 31G]mimylin] ({C20 diacid-γGlu}-ASGLSTAALGRLSAELHELATYPRTETGSGSP-NH2) |
| ≧200 μM | ≧200 μM | ≧200 μM | ≧200 μM | ≧200 μM | ≧200 μM | ≧200 μM | ≧200 μM | – | CC(C)C[C@H](NC(=O)[C@H](C)NC(=O)[C@H](C)NC(=O)[C@@H](NC(=O)[C@H](CO)NC(=O)[C@H](CC(C)C)NC(=O)[C@H](CCC(=O)O)NC(=O)[C@H](CO)NC(=O)[C@H](C)NC(=O)CC[C@H](NC(=O)CCCCCCCCCCCCCCCCCCC(=O)O)C(=O)O)[C@@H](C)O)C(=O)NCC(=O)N[C@@H](CCCCN)C(=O)N[C@@H](CC(C)C)C(=O)N[C@@H](CO)C(=O)N[C@@H](C)C(=O)N[C@@H](CCC(=O)O)C(=O)N[C@@H](CC(C)C)C(=O)N[C@@H](Cc1cnc[nH]1)C(=O)N[C@@H](CCC(=O)O)C(=O)N[C@@H](CC(C)C)C(=O)N[C@@H](C)C(=O)N[C@H](C(=O)N[C@@H](Cc1ccc(O)cc1)C(=O)N1CCC[C@H]1C(=O)N[C@@H](CCCCN)C(=O)N[C@H](C(=O)N[C@@H](CCC(=O)O)C(=O)N[C@H](C(=O)NCC(=O)N[C@@H](CO)C(=O)NCC(=O)N[C@@H](CO)C(=O)N[C@@H](Cc1ccc(O)cc1)C(N)=O)[C@@H](C)O)[C@@H](C)O)[C@@H](C)O [compound 101, [N-terminal(C20 diacid-gGlu), des1, 12K, 23Y, 25K, 30S, 31G, 33Y]mimylin] ({C20 diacid-γGlu}-ASELSTAALGKLSAELHELATYPKTETGSGSY-NH2) |
| ≧200 μM | ≧200 μM | – | ≧200 μM | ≧200 μM | ≧200 μM | ≧200 μM | ≧200 μM | 32 (≈ 124 µg/mL) | CC(C)C[C@H](NC(=O)CNC(=O)[C@H](CO)NC(=O)[C@H](C)NC(=O)CC[C@H](NC(=O)CCCCCCCCCCCCCCCCCCC(=O)O)C(=O)O)C(=O)N[C@@H](CO)C(=O)N[C@H](C(=O)N[C@@H](C)C(=O)N[C@H](C(=O)N[C@@H](CC(C)C)C(=O)NCC(=O)N[C@@H](CCCNC(=N)N)C(=O)N[C@@H](CC(C)C)C(=O)N[C@@H](CO)C(=O)N[C@@H](CCC(N)=O)C(=O)N[C@@H](CCC(=O)O)C(=O)N[C@@H](CC(C)C)C(=O)N[C@@H](Cc1cnc[nH]1)C(=O)N[C@@H](CCC(=O)O)C(=O)N[C@@H](CC(C)C)C(=O)N[C@@H](CCC(N)=O)C(=O)N[C@H](C(=O)N[C@@H](Cc1ccc(O)cc1)C(=O)N1CCC[C@H]1C(=O)N[C@@H](CCCNC(=N)N)C(=O)N[C@H](C(=O)N[C@@H](CCC(=O)O)C(=O)N[C@H](C(=O)NCC(=O)N[C@@H](CO)C(=O)N[C@@H](C)C(=O)N[C@H](C(=O)N[C@@H](Cc1ccc(O)cc1)C(N)=O)[C@@H](C)O)[C@@H](C)O)[C@@H](C)O)[C@@H](C)O)C(C)C)[C@@H](C)O [compound 122, [N-terminal(C20 diacid-gGlu), des1, 4G, 9V, 15Q, 21Q, 23Y, 30S, 31A, 32T, 33Y]mimylin] ({C20 diacid-γGlu}-ASGLSTAVLGRLSQELHELQTYPRTETGSATY-NH2) |
| ≧200 μM | ≧200 μM | – | ≧200 μM | ≧200 μM | ≧200 μM | ≧200 μM | ≧200 μM | 119 (≈ 448 µg/mL) | CC(C)C[C@H](NC(=O)CNC(=O)[C@H](CO)NC(=O)[C@H](C)NC(=O)CC[C@H](NC(=O)CCCCCCCCCCCCCCCCCCC(=O)O)C(=O)O)C(=O)N[C@@H](CO)C(=O)N[C@H](C(=O)N[C@@H](C)C(=O)N[C@H](C(=O)N[C@@H](CC(C)C)C(=O)NCC(=O)N[C@@H](CCCNC(=N)N)C(=O)N[C@@H](CC(C)C)C(=O)N[C@@H](CO)C(=O)N[C@@H](C)C(=O)N[C@@H](CCC(=O)O)C(=O)N[C@@H](CC(C)C)C(=O)N[C@@H](Cc1cnc[nH]1)C(=O)N[C@@H](CCC(=O)O)C(=O)N[C@@H](CC(C)C)C(=O)N[C@@H](C)C(=O)N[C@H](C(=O)N[C@@H](Cc1ccc(O)cc1)C(=O)N1CCC[C@H]1C(=O)N[C@@H](CCCNC(=N)N)C(=O)N[C@H](C(=O)N[C@@H](CCC(=O)O)C(=O)N[C@H](C(=O)NCC(=O)N[C@@H](CO)C(=O)NCC(=O)N[C@H](C(=O)N[C@@H](Cc1ccc(O)cc1)C(N)=O)[C@@H](C)O)[C@@H](C)O)[C@@H](C)O)[C@@H](C)O)C(C)C)[C@@H](C)O [compound 104, [N-terminal(C20 diacid-gGlu), des1, 4G, 9V, 23Y, 30S, 31G, 32T, 33Y]mimylin] ({C20 diacid-γGlu}-ASGLSTAVLGRLSAELHELATYPRTETGSGTY-NH2) |
